The values below come from US10736898B2, “Positive allosteric modulators of the muscarinic acetylcholine receptor M4” (Vanderbilt University, priority 2017, dated 2020).

One assay has as its target T1, Human M4 (Homo sapiens, UniProt P08173).
T1 construct: expressed in transfected cells
T1 sequence (P08173 1-479): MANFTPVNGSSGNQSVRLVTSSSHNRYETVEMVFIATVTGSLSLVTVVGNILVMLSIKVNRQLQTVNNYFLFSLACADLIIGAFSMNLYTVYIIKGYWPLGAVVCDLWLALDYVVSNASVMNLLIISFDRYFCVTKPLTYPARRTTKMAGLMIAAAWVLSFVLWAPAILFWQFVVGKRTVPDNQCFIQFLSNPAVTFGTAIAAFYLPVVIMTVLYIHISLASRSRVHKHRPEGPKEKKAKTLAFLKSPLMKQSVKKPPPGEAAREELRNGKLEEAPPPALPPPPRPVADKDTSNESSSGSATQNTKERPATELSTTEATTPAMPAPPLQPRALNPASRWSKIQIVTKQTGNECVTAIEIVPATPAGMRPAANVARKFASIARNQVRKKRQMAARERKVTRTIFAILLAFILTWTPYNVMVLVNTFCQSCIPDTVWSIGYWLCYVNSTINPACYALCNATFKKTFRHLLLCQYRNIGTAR
Briefly: mAChR M4 cell-based functional assay (calcium flux, potentiation of EC20 acetylcholine response). Conditions: for pEC50: CHO-K1 cells with human M4 and Gqi5, increase in EC20 acetylcholine response. For orientation: Calcium assays in cells follow changes in intracellular calcium, usually with a dye or a luminescent sensor.

The test system of another assay is male Sprague-Dawley rats. Briefly: Reversal of amphetamine-induced hyperlocomotion in rats. It counts as in vivo, rat. Particulars: 10 mg/kg p.o. The procedure:
Drugs: d-Amphetamine hemisulfate was obtained from Sigma (St. Louis, Mo.). Salt-correction was used to determine the correct amount of the d-amphetamine hemisulfate form in milligrams to add to sterile water in order to yield a 0.75 mg/mL solution, which would be dosed at 1 mL/kg body weight of each animal. […] The solutions were formulated so that animals were injected with a volume equal to 10 mL/kg body weight for all compounds. The appropriate amount according to the dosage was mixed in 10% Tween 80 (Sigma) 90% sterile water. The mixtures were then vortexed and stored in a 39° C. sonication bath for 1 hour, until in a microsuspension (except for the highest dose, which was a suspension).
Animals: Male Sprague-Dawley rats weighing 239-300 grams and averaging 265 g (Harlan, Inc., Indianapolis, Ind.) were used. They were housed in the animal care facility certified by the American Association for the Accreditation of Laboratory Animal Care (AALAC) under a 12-hour light/dark cycle (lights on: 6 a.m.; lights off: 6 p.m.) and had free access to food and water. The animals used in this experiment were food-deprived the evening before experimentation for oral dosing of compound/vehicle. The experimental protocols performed during the light cycle were approved by the Institutional Animals Care and Use Committee of Vanderbilt University and conformed to the guidelines established by the National Research Council Guide for the Care and Use of Laboratory Animals.
Amphetamine-induced Hyperlocomotion: Male Harlan Sprague Dawley rats were habituated in Smart Open Field locomotor activity test chambers (Hamilton-Kinder, San Diego, Calif.) with 16×16 photo beams to automatically record locomotor activity. […] They were monitored for an additional 30 minutes and then injected subcutaneously with vehicle or […] amphetamine. Animals were then monitored for an additional 60 minutes, for a total of 120 minutes. Data were expressed as changes in ambulation defined as total number of beam breaks per 5 minute interval. […]
Data Analysis: Behavioral data were analyzed using a two-way ANOVA with main effects of treatment and time. […] In addition, the total number of beam breaks from the amphetamine administration (65 min) to the end of the study (120 min) was calculated and graphed. Percent Reversal was calculated as follows using Microsoft Excel: In each animal, total ambulation from t=65 to t=120 was summed. The mean of each sum was calculated in the VAMP group. Then, for each animal, Percent Reversal was calculated with the following formula: Percent Reversal=100−{[(total ambulation in each animal from t=65 to t=120)/(mean of each sum from t=65 to t=120 in VAMP group)]*100}. The mean Percent Reversal, as well as the standard error, was calculated for each dose group using GraphPad Prism V5.04.

The mark [1] stands for this setting: % ACh maximum at 30 μM, human M4.

pEC50: −log10 of the molar value.

Procedure for Human M4: Human M4 cDNA, along with the chimeric G protein Gqi5, were transfected into Chinese hamster ovary (CHO-K1) cells purchased from the American Type Culture Collection using commercially available Lipofectamine 2000 transfection reagent (Dalby, B. et al., Methods (2004) 33(2), 95-103). hM4-Gqi5 cells were grown in Ham's F-12 medium containing 10% heat-inactivated fetal bovine serum (FBS), 20 mM HEPES, 50 μg/mL G418 sulfate (CAS #108321-42-2), and 500 μg/mL Hygromycin B. rM4-Gqi5 cells were grown in DMEM containing 10% heat-inactivated FBS, 20 mM HEPES, 400 μg/mL G418 sulfate, and 500 μg/mL Hygromycin B.
For high throughput measurement of agonist-evoked increases in intracellular calcium, CHO-K1 cells stably expressing muscarinic receptors were plated in growth medium lacking G418 sulfate and hygromycin at 15,000 cells/20 μL/well in Greiner 384-well black-walled, tissue culture (TC)-treated, clear-bottom plates (VWR). Cells were incubated overnight at 37° C. and 5% CO2. The next day, cells were washed using an ELX 405 (BioTek) with assay buffer; the final volume was then aspirated to 20 μL. […] Dye was removed by washing with the ELX 405 and the final volume was aspirated to 20 μL. Compound master plates were formatted in an 11 point concentration-response curve (CRC) format (1:3 dilutions) in 100% DMSO with a starting concentration of 10 mM using a BRAVO liquid handler (Agilent). Test compound CRCs were then transferred to daughter plates (240 nL) using the Echo acoustic plate reformatter (Labcyte, Sunnyvale, Calif.) and then diluted into assay buffer (40 μL) to a 2× stock using a Thermo Fisher Combi (Thermo Fisher Scientific, Waltham, Mass.).
Calcium flux was measured using the Functional Drug Screening System (FDSS) 6000 or 7000 (Hamamatsu Corporation, Tokyo, Japan) as an increase in the fluorescent static ratio. Compounds were applied to cells (20 μL, 2×) using the automated system of the FDSS at 2-4 seconds into the protocol and the data were collected at 1 Hz. At 144 seconds, 10 μL of an EC20 concentration of the muscarinic receptor agonist acetylcholine was added (5×), followed by the addition of 12 μL of an EC80 concentration of acetylcholine at the 230 second time point (5×). Agonist activity was analyzed as a concentration-dependent increase in calcium mobilization upon compound addition. Positive allosteric modulator activity was analyzed as a concentration-dependent increase in the EC20 acetylcholine response. […] Antagonist activity was analyzed as a concentration-dependent decrease in the EC80 acetylcholine response. Concentration-response curves were generated using a four-parameter logistical equation in XLFit curve fitting software (IDBS, Bridgewater, N.J.) for Excel (Microsoft, Redmond, Wash.) or Prism (GraphPad Software, Inc., San Diego, Calif.).

Consider `Cc1nc(C)c2c(n1)sc1c(NCc3ccc(F)c(F)c3)ncc(Cl)c12` [Compound 43, 5-chloro-N-[(3,4-difluorophenyl)methyl]-2,4-dimethyl-pyrido[4,5]thieno[1,2-b]pyrimidin-8-amine], for which, at Human M4 (setting [1]), the Emax at 30 µM was 50.3%. The pEC50 at Human M4 was 5.36.

In the case of `Cc1nc(C)c2c(n1)sc1c(N3CCCC3)nccc12` [Compound 11, 2,4-Dimethyl-8-(pyrrolidin-1-yl)pyrido[4′,3′:4,5]thieno[2,3-d]pyrimidine], at Human M4 (setting [1]), the Emax at 30 µM was determined as 77%. Also, the pEC50 on Human M4 was 7.14. On the same counts, the results for `Cc1nc(C)c2c(n1)sc1c(NCc3ccc(C4(O)CCC4)cc3)ncnc12` [Compound 6, 1-(4-(((7,9-dimethylthieno[2,3-d:4,5-d′]dipyrimidin-4-yl)amino)methyl)phenyl)cyclobutan-1-ol] are 81.3% and 5.69. Turning to `Cc1nnc2sc(C(=O)NCc3ccc(S(=O)(=O)C(F)(F)F)cc3)c(N)c2c1C` [VU0467154-9A, 5-amino-3,4-dimethyl-N-(4-((trifluoromethyl)sulfonyl)benzyl)thieno[2,3-c]pyridazine-6-carboxamide, reference compound], in the assay on male Sprague-Dawley rats, the “percent reversal of amphetamine-induced hyperlocomotion” value stood at 55.0%.

Take `Cc1nc(C)c2c(n1)sc1c(NCc3ccc(C(C)(C)O)cc3F)nccc12` [Compound 22, 2-[4-[[(2,4-dimethylpyrido[4,5]thieno[1,2-b]pyrimidin-8-yl)amino]methyl]-3-fluoro-phenyl]propan-2-ol]: the Emax at 30 µM on Human M4 (setting [1]) turned out to be 88.7%. Moreover, at Human M4, the pEC50 was 6.08. As to `Cc1nc(C)c2c(n1)sc1c(NC3CCC3)ncc(Cl)c12` [Compound 44, 5-chloro-N-cyclobutyl-2,4-dimethyl-pyrido[4,5]thieno[1,2-b]pyrimidin-8-amine], on Human M4 (setting [1]), the Emax at 30 µM is 60.1%. For the same compound, at Human M4, the pEC50 is 6.00. Take `COc1ccc(CNc2nccc3c2sc2nc(C)nc(C)c23)cc1F` [Compound 13, N-(3-fluoro-4-methoxybenzyl)-2,4-dimethylpyrido[4′,3′:4,5]thieno[2,3-d]pyrimidin-8-amine]: the Emax at 30 µM on Human M4 (setting [1]) turned out to be 84.4%. On Human M4, the pEC50 was 6.77. Take `Cc1nc(C2CC2)nc2sc3c(N4CCCCC4)nccc3c12` [Compound 37, 2-cyclopropyl-4-methyl-8-(1-piperidyl)pyrido[4,5]thieno[1,2-d]pyrimidine]: on Human M4 (setting [1]), the Emax at 30 µM stood at 55%. In addition, on Human M4, the pEC50 is less than 5.00. `Cc1nc(C2CC2)nc2sc3c(N4CCOCC4)nccc3c12` [Compound 30, 4-(2-cyclopropyl-4-methyl-pyrido[4,5]thieno[1,2-d]pyrimidin-8-yl)morpholine]: the Emax at 30 µM at Human M4 (setting [1]) stood at 74.2%. On Human M4, the pEC50 was 6.35. For the compound `Cc1nc(C)c2c(n1)sc1c(N3CC[C@@H](F)C3)ncnc12` [Compound 20, (R)-4-(3-fluoropyrrolidin-1-yl)-7,9-dimethylthieno[2,3-d:4,5-d′]dipyrimidine], at Human M4 (setting [1]), the Emax at 30 µM was 71.5%. Further, the pEC50 at Human M4 was 6.10. As to `Cc1nc(C)c2c(n1)sc1c(NCc3ccc(C(C)(C)O)cc3)ncc(Cl)c12` [Compound 41, 2-(4-(((5-chloro-2,4-dimethylpyrido[4′,3′:4,5]thieno[2,3-d]pyrimidin-8-yl)amino)methyl)phenyl)propan-2-ol], the Emax at 30 µM at Human M4 (setting [1]) turned out to be 91.9%. Further, at Human M4, the negative-log EC50 (pEC50) was 5.48. `Cc1nc(C)c2c(n1)sc1c(N3CCCC3)ncnc12` [Compound 2, 7,9-dimethyl-4-(pyrrolidin-1-yl)thieno[2,3-d:4,5-d′]dipyrimidine]: the Emax at 30 µM on Human M4 (setting [1]) amounted to 51.7%. Also, the negative logarithm of the EC50 (pEC50) at Human M4 was 6.54.

Turning to “5-chloro-N-[(3-fluoro-4-methoxy-phenyl)methyl]-2,4-dimethyl-pyrido[4,5]thieno[1,2-b]pyrimidin-8-amine [Compound 42]”, at Human M4 (setting [1]), the Emax stood at 60.5%. Moreover, the pEC50 at Human M4 was 6.14.

With `CCN(CC)c1nccc2c1sc1nc(C)nc(C)c12` [Compound 24, N,N-diethyl-2,4-dimethyl-pyrido[4,5]thieno[1,2-b]pyrimidin-8-amine], the Emax at 30 µM at Human M4 (setting [1]) is 37.7%. For the same compound, the pEC50 at Human M4 was less than 5.00.

A word on the Emax: it is the maximal effect, on the per cent scale that the assay sets. As usually defined, the pEC50 is the negative decadic logarithm of the EC50, by convention in mol/L.
